In US12060360B2, “Lysyl oxidase inhibitors” (The Institute of Cancer Research: Royal Cancer Hospital, priority 2017, dated 2024):
pIC50: −log10 of the molar value. Where two headings read alike, the source gives them in different places. Values belong to the compound of their own block, whether it stands above or below them.

Target: T1, LOX (Mus musculus, UniProt P28301)
T1 construct: Full length LOX cDNA was then PCR cloned into pEGFP-N1 (Clonetech), or biosensor vector proGFP2-N1; expressed in transfected cells; host or cells: MDCK cells grown as cysts on Matrigel, G418-selected
T1 sequence (P28301 163-411): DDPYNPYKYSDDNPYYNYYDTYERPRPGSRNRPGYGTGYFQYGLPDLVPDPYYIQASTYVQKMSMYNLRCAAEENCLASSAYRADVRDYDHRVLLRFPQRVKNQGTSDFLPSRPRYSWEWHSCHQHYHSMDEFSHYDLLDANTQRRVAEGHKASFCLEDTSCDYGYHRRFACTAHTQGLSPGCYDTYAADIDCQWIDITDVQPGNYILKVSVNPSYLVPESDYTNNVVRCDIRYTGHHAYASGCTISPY
Experiment: LOX activity in cysts assay (LOX-roGFP2 biosensor, MDCK cysts)
Assay type: cell-based
Details: for inhibition at 10 µM: read-out: LOX biosensor inhibition (cyst) @ 10 uM; for pIC50: roGFP2 ratio at basal surface, read-out: LOX biosensor IC50 (cyst)
Method: LOX Activity in Cysts Assay (Tang et al, 2017).
All cell lines used in this study were purchased from American Type Culture Collection (ATCC). Mycoplasma contamination was routinely monitored by PCR. Cells used were not found to be Mycoplasma positive. MDCK cell lines were cultured in Dulbecco's Modified Eagle Medium (DMEM) supplemented with 10% fetal bovine serum (FBS) and 1% Penicillin Streptomycin solution (Pen Strep). For GFP constructs transfection in MDCK cells, lipofectamine 3000 was used according to manufactures protocols. Cells were either selected with G418 (Life Technologies) at 5 mg/ml. All cell culture reagents were purchased from Life Technologies.
To produce MDCK cysts, cells were cultured on Matrigel (Corning) with 2% Matrigel supplemented in DMEM with 10% FBS. Cysts were allowed to form for 10 days before subsequent studies.
Mouse LOX cDNA was purchased from OriGene. Full length LOX cDNA was then PCR cloned into pEGFP-N1 (Clonetech), or biosensor vector proGFP2-N1 (Hanson, 2004) using the following primers, […] (forward primer) and […] (reverse primer). For the insertion into pEGFP-N1 or proGFP2-N1, NheI and XhoI restriction sites were added to forward and reverse primers accordingly. Mutant LOX constructs were made using QuickChange II site-directed mutagenesis kit (Agilent Technologies) following manufacture's protocol using LOX-GFP as template. To generate, roGFP2 versions of LOX mutant constructs, LOX mutant cDNA was transferred from pEGFP-N1 to proGFP2-N1 using NheI and XhoI.
All photomicrographs were taken with a Leica TCS SP8 X confocal system. For LOX biosensor imaging, live MDCK cysts were used. The oxidised biosensor was excited using a 405 nm laser, while the reduced biosensor was excited with a 488 nm laser. Emission of the biosensor was recorded at 500 nm˜530 nm range using sequential scans. Ratio images were generated following a published protocol {Kardash, 2011 #376}. Note, while the published protocol generates YFP/CFP ratio images, we used it to generate Oxidised/Reduced (roGFP2 ratio) ratio images. The roGFP2 ratio at the basal surface of MDCK cysts was used to indicate LOX inhibition. LOX inhibitors were added 30 min prior to imaging.
For clarity, readout for DMSO treated cysts represents 0% inhibition (no inhibition) and readout for BAPN at 1 mM is used as 100% inhibition (full inhibition).

[1] = 10 uM, MDCK cysts, inhibitor added 30 min prior to imaging, DMSO = 0%, BAPN 1 mM = 100% inhibition

SMILES: CC1(C)C[C@@H]2CN(C(=O)N3CCS(=O)(=O)CC3)C[C@H]1N(c1ccc(N3CCN(S(C)(=O)=O)CC3)cc1)C2 [Example 31, ((1S,5S)-9,9-dimethyl-6-(4-(4-(methylsulfonyl)-1λ4-piperazin-1-yl)phenyl)-3,6-diazabicyclo[3.2.2]nonan-3-yl)(1,1-dioxidothiomorpholino)methanone]
inhibition at 10 µM [1]: 100%
pIC50 (MDCK cysts): > 6.74

SMILES: CNS(=O)(=O)N1C[C@@H]2CN(c3ccc(OC)cc3)[C@H](C1)C(C)(C)C2 [Example 56, (1S,5S)-6-(4-methoxyphenyl)-N,9,9-trimethyl-3,6-diazabicyclo[3.2.2]nonane-3-sulfonamide]
inhibition at 10 µM [1]: 74%

SMILES: CCOc1ccc(N2C[C@H]3CN(C(=O)Nc4ccc(OC)cc4)C[C@@H]2C(C)(C)C3)cc1 [Example 1, (1S,5S)-6-(4-ethoxyphenyl)-N-(4-methoxyphenyl)-9,9-dimethyl-3,6-diazabicyclo[3.2.2]nonane-3-carboxamide]
inhibition at 10 µM [1]: 91%

SMILES: CCOc1ccc(N2C[C@H]3CN(CC(O)CC#N)C[C@@H]2C(C)(C)C3)cc1 (stereo partly drawn) [Example 46, 4-((1R,5S)-6-(4-Ethoxyphenyl)-9,9-dimethyl-3,6-diazabicyclo[3.2.2]nonan-3-yl)-3-hydroxybutanenitrile]
inhibition at 10 µM [1]: 72%

SMILES: CCOc1ccc(N2C[C@H]3CN(C(=O)CCc4cccnc4)C[C@@H]2C(C)(C)C3)cc1 [Example 52, 1-((1S,5S)-6-(4-ethoxyphenyl)-9,9-dimethyl-3,6-diazabicyclo[3.2.2]nonan-3-yl)-3-(pyridin-3-yl)propan-1-one]
inhibition at 10 µM [1]: 100%

SMILES: CCOc1ccc(N2C[C@H]3CN(C(=O)NC[C@@H](O)CO)C[C@@H]2C(C)(C)C3)cc1 [Example 19, (1S,5S)-N-((R)-2,3-dihydroxypropyl)-6-(4-ethoxyphenyl)-9,9-dimethyl-3,6-diazabicyclo[3.2.2]nonane-3-carboxamide]
inhibition at 10 µM [1]: 100%

SMILES: CCOc1ccc(N2C[C@H]3CN(C(=O)c4ccccn4)C[C@@H]2C(C)(C)C3)cc1 [Example 51, ((1S,5S)-6-(4-ethoxyphenyl)-9,9-dimethyl-3,6-diazabicyclo[3.2.2]nonan-3-yl)(pyridin-2-yl)methanone]
inhibition at 10 µM [1]: 75%

inhibition at 10 µM [1]: 100%
pIC50 (MDCK cysts): 6.16
SMILES: CC1(C)C[C@@H]2CN(c3ccc(N4CCS(=O)(=O)CC4)cc3)[C@H]1CCN2C(=O)N1CCS(=O)(=O)CC1 [Example 9, (1,1-dioxidothiomorpholino)((1R,5S)-6-(4-(1,1-dioxidothiomorpholino)phenyl)-9,9-dimethyl-2,6-diazabicyclo[3.2.2]nonan-2-yl)methanone]

SMILES: CCCS(=O)(=O)N1C[C@@H]2CN(c3ccc(OCC)cc3)[C@H](C1)C(C)(C)C2 [Example 54, (1S,5S)-6-(4-ethoxyphenyl)-9,9-dimethyl-3-(propylsulfonyl)-3,6-diazabicyclo[3.2.2]nonane]
inhibition at 10 µM [1]: 54%

inhibition at 10 µM [1]: 100%
pIC50 (MDCK cysts): 6.43
SMILES: CCOc1ccc(N2C[C@@H]3CC4(CCCCC4)[C@H]2CCN3C(=O)NCCO)cc1 [Example 23, (1S,5R)-6-(4-ethoxyphenyl)-N-(2-hydroxyethyl)-2,6-diazaspiro[bicyclo[3.2.2]nonane-9,1′-cyclohexane]-2-carboxamide]

SMILES: N#CCCN [BAPN, β-aminopropionitrile, reference compound]
LOX inhibition in cysts assay (reference used as full inhibition) (1 mM, readout used as 100% inhibition): 100%

SMILES: CC1(C)C[C@@H]2CN(C(=O)N3CCN(S(C)(=O)=O)CC3)C[C@H]1N(c1ccc(N3CCS(=O)(=O)CC3)cc1)C2 [Example 61, ((1S,5S)-6-(4-(1,1-dioxidothiomorpholino)phenyl)-9,9-dimethyl-3,6-diazabicyclo[3.2.2]nonan-3-yl)(4-(methylsulfonyl)piperazin-1-yl)methanone]
inhibition at 10 µM [1]: 79%

SMILES: CC1(C)C[C@@H]2CN(C(=O)N3CCS(=O)(=O)CC3)C[C@H]1N(c1ccc3c(c1)OCCO3)C2 [Example 63, ((1 S,5S)-6-(2,3-dihydrobenzo[b][1,4]dioxin-6-yl)-9,9-dimethyl-3,6-diazabicyclo[3.2.2]nonan-3-yl)(1,1-dioxidothiomorpholino)methanone]
inhibition at 10 µM [1]: 100%

SMILES: CNC(=O)N1C[C@@H]2CN(c3ccc(N4CCS(=O)(=O)CC4)cc3)[C@H](C1)C(C)(C)C2 [Example 6, (1S,5S)-6-(4-(1,1-dioxidothiomorpholino)phenyl)-N,9,9-trimethyl-3,6-diazabicyclo[3.2.2]nonane-3-carboxamide]
inhibition at 10 µM [1]: 50%

SMILES: C#CCN1C[C@@H]2CN(c3ccc(OCC)cc3)[C@H](C1)C(C)(C)C2 [Example 41, (1R,5S)-6-(4-ethoxyphenyl)-9,9-dimethyl-3-(prop-2-yn-1-yl)-3,6-diazabicyclo[3.2.2]nonane]
inhibition at 10 µM [1]: 87%

SMILES: CCOc1ccc(N2C[C@H]3CN(C(=O)NNCCO)C[C@@H]2C(C)(C)C3)cc1 (stereo in doubt) [Example 29, 6-(4-ethoxyphenyl)-N′-(2-hydroxyethyl)-9,9-dimethyl-3,6-diazabicyclo[3.2.2]nonane-3-carbohydrazide]
inhibition at 10 µM [1]: 100%

SMILES: CCOc1ccc(N2C[C@H]3CN(CCc4cn[nH]c4)C[C@@H]2C(C)(C)C3)cc1 [Example 48, (1R,5S)-3-(2-(1H-pyrazol-4-yl)ethyl)-6-(4-ethoxyphenyl)-9,9-dimethyl-3,6-diazabicyclo[3.2.2]nonane]
inhibition at 10 µM [1]: 100%

SMILES: CC1(C)C[C@@H]2CN(C(=O)NCCO)C[C@H]1N(c1ccc(C=O)cc1)C2 [Example 37, (1 S,5S)-6-(4-Formylphenyl)-N-(2-hydroxyethyl)-9,9-dimethyl-3,6-diazabicyclo[3.2.2]nonane-3-carboxamide]
inhibition at 10 µM [1]: 86%

SMILES: CCOc1ccc(N2C[C@H]3CN(C(=O)N4CCC(C#N)CC4)C[C@@H]2C(C)(C)C3)cc1 [Example 17, 1-((1S,5S)-6-(4-ethoxyphenyl)-9,9-dimethyl-3,6-diazabicyclo[3.2.2]nonane-3-carbonyl)piperidine-4-carbonitrile]
inhibition at 2.5 µM (2.5 uM (stated in cell), MDCK cysts, DMSO = 0%, BAPN 1 mM = 100% inhibition, read-out: LOX biosensor inhibition (cyst) @ 2.5 uM): 77%

SMILES: CCOc1ccc(N2C[C@H]3CN(C(=O)N4CC[C@H](O)C4)C[C@@H]2C(C)(C)C3)cc1 [Example 15, ((1S,5S)-6-(4-ethoxyphenyl)-9,9-dimethyl-3,6-diazabicyclo[3.2.2]nonan-3-yl)((S)-3-hydroxypyrrolidin-1-yl)methanone]
inhibition at 10 µM [1]: 84%

SMILES: CC1(C)C[C@@H]2CN(C(=O)NCCO)C[C@H]1N(c1ccc(SCCO)cc1)C2 [Example 34, (1S,5S)-N-(2-Hydroxyethyl)-6-(4-((2-hydroxyethyl)thio)phenyl)-9,9-dimethyl-3,6-diazabicyclo[3.2.2]nonane-3-carboxamide]
inhibition at 10 µM (MDCK): 100%

SMILES: CC1(C)C[C@@H]2CN(C(=O)NCCO)C[C@H]1N(c1ccc(N3CCS(=O)(=O)CC3)cc1)C2 [Example 5, (1S,5S)-6-(4-(1,1-dioxidothiomorpholino)phenyl)-N-(2-hydroxyethyl)-9,9-dimethyl-3,6-diazabicyclo[3.2.2]nonane-3-carboxamide]
inhibition at 10 µM [1]: 62%

SMILES: CC1(C)C[C@@H]2CN(C(=O)NCCO)C[C@H]1N(c1ccc(Br)cc1)C2 [Example 35, (1S,5S)-6-(4-Bromophenyl)-N-(2-hydroxyethyl)-9,9-dimethyl-3,6-diazabicyclo[3.2.2]nonane-3-carboxamide]
inhibition at 10 µM [1]: 84.1%

SMILES: CCOc1ccc(N2C[C@H]3CN(C4=NCCO4)C[C@@H]2C(C)(C)C3)cc1 [Example 38, 2-((1S,5S)-6-(4-ethoxyphenyl)-9,9-dimethyl-3,6-diazabicyclo[3.2.2]nonan-3-yl)-4,5-dihydrooxazole]
inhibition at 10 µM [1]: 59%

SMILES: CC1(C)C[C@@H]2CN(C(=O)NCCO)C[C@H]1N(c1ccc(N3CCCCC3)cc1)C2 [Example 32, (1S,5S)-N-(2-hydroxyethyl)-9,9-dimethyl-6-(4-(piperidin-1-yl)phenyl)-3,6-diazabicyclo[3.2.2]nonane-3-carboxamide]
inhibition at 10 µM [1]: 90%
pIC50 (MDCK cysts): > 6.74
